{
  "source": "patent US20140024720A1",
  "about": "“PHARMACEUTICAL COMPOSITION CONTAINING CYCLOBENZAPRINE SUITABLE TO INTRANASAL ADMINISTRATION” (Campiglo Consulting SRL, priority 2011, published 2014)",
  "key": {"[1]": {"conditions": "cited from earlier work"}, "[2]": {"experiment": "in vivo", "conditions": "rabbit; for AUC(0-inf) / AUC(0-t) / Cmax / Tmax / half-life: male, New Zealand albino, plasma", "method": "The plasma levels of cyclobenzaprine (CBZ) were determined after a single intranasal dose of 1.5 mg/kg in a volume of 10 μl, and 3.0 mg/kg in a volume of 20 μl, and after a single oral dose of 1.5 mg/kg in New Zealand albino male rabbits.\n1. The oral administration was performed with a 0.15% solution, the intranasal administration with a 15% solution.\n2. Six male animals/group were treated with a single dose by intranasal or oral route.\n3. Fifteen minutes before the drug administration the central artery of the ear was cannulated with a 25-gauge needle catheter and for each animal 7 blood collections at time 0 (TO, before drug administration) and at 15, 30, 60, 90, 120, 180 minutes after drug administration were performed. Three mL of blood sample were collected in heparinized tubes and the volume replaced with a Ringer-Lactate solution. The plasma samples were obtained from blood samples by centrifugation at 3000 g for 5 min. The plasma samples were be stored at −20±2° C. until the LC/MS/MS analysis.\n4. Rabbit plasma concentrations of CBZ were determined using a validated LC-MS/MS method in the calibration range of 0.25-300 ng/mL.\nAliquots of 250 μL of rabbit plasma were spiked with 5 μL of internal standard (IS) solution (containing approximately 5000 ng/mL of IS, Imipramine Hydrochloride) in water:methanol (50/50, v/v), after vortex-mixing, 250 μL of borate buffer were added. After vortex-mixing, 3.5 mL of hexane were added. After vortex-mixing for 10 minutes and centrifugation at 10.000 rpm at +4° C. for 10 minutes, aliquots of 3 mL of organic phase were transferred into a single glass tube and dried under vacuum at 40° C. using a Büchi vacuum system. The residues were re-constituted with 100 μL of 20 Mm ammonium acetate buffer solution, 0.1%:acetonitrile (50/50, v/v) solution. The tubes were then capped, vortex-mixed and centrifugated at 4100 rpm at +4° C. for 10 minutes. The final extracts were transferred into an autosampler vial and 4 μL were injected into the LC-MS/MS system.\nCalibration curves plot the ratio of the area of the compound and the IS (y) against the analyte concentration (x). A weighted linear regression function (1/x) is used to fit calibration lines and consequently to calculate CBZ concentrations. The lower and upper limits of quantification are 0.25 and 300 ng/mL of plasma samples."}, "[3]": {"conditions": "pH higher than 7.4, opalescence formation"}, "[4]": {"conditions": "inhaled or intranasal, 1.5 mg/kg"}},
  "note": "Where a name gives a salt, the structure may show the parent alone. Read-outs that look alike come from different tables or passages of the source.",
  "data": [
    {"compound": "CN(C)CCC=C1c2ccccc2C=Cc2ccccc21", "note": "[Cyclobenzaprine, 3-(5H-dibenzo[a,d]cyclo-epten-5-yliden)-N,N-dimethyl-1-propanamine hydrochloride]", "values": [
      {"measurement": "plasmatic half time", "setting": "[1]; absorbed per os, range 8-37 hours", "value": 18, "unit": "h"},
      {"measurement": "time until effect of a single administration is shown", "setting": "[1]; after oral taking", "value": "one"},
      {"measurement": "duration of effect of a single administration", "setting": "[1]; oral taking", "value": "≥ 12", "unit": "h"},
      {"measurement": "AUC(0-inf)", "setting": "[2]; [4]", "value": 65.8, "unit": "ng·h/mL"},
      {"measurement": "AUC(0-t)", "setting": "[2]; [4]", "value": 60.1, "unit": "ng·h/mL"},
      {"measurement": "Cmax", "setting": "[2]; [4]", "value": 69.3, "unit": "ng/mL"},
      {"measurement": "Tmax", "setting": "[2]; [4]", "value": 30, "unit": "min"},
      {"measurement": "half-life", "setting": "[2]; [4]", "value": 49.3, "unit": "min"},
      {"measurement": "AUC(0-inf)", "setting": "[2]; inhaled or intranasal, 3 mg/kg", "value": 65.6, "unit": "ng·h/mL"},
      {"measurement": "AUC(0-t)", "setting": "[2]; inhaled or intranasal, 3 mg/kg", "value": 54.6, "unit": "ng·h/mL"},
      {"measurement": "Cmax", "setting": "[2]; inhaled or intranasal, 3 mg/kg", "value": 65.1, "unit": "ng/mL"},
      {"measurement": "Tmax", "setting": "[2]; inhaled or intranasal, 3 mg/kg", "value": 30, "unit": "min"},
      {"measurement": "half-life", "setting": "[2]; inhaled or intranasal, 3 mg/kg", "value": 93.9, "unit": "min"},
      {"measurement": "AUC(0-inf)", "setting": "[2]; po, 1.5 mg/kg", "value": 3.44, "unit": "ng·h/mL"},
      {"measurement": "AUC(0-t)", "setting": "[2]; po, 1.5 mg/kg", "value": 2.08, "unit": "ng·h/mL"},
      {"measurement": "Cmax", "setting": "[2]; po, 1.5 mg/kg", "value": 1.28, "unit": "ng/mL"},
      {"measurement": "Tmax", "setting": "[2]; po, 1.5 mg/kg", "value": 30, "unit": "min"},
      {"measurement": "half-life", "setting": "[2]; po, 1.5 mg/kg", "value": 124, "unit": "min"},
      {"measurement": "rate of absorption by intranasal route compared with oral route", "setting": "[2]", "value": "higher"},
      {"measurement": "absorption by intranasal route", "setting": "[2]; intranasal", "value": "well absorbed"},
      {"measurement": "λz", "setting": "[2]; intranasal 1.5 mg/kg, 15% solution", "value": 0.940, "unit": "h⁻¹"},
      {"measurement": "λz", "setting": "[2]; intranasal 3.0 mg/kg, 15% solution", "value": 0.452, "unit": "h⁻¹"},
      {"measurement": "dose dependence of Cmax and AUC by intranasal route", "setting": "[2]; intranasal 1.5 and 3.0 mg/kg", "value": "linear with the dose"},
      {"measurement": "λz", "setting": "[2]; oral 1.5 mg/kg, 0.15% solution", "value": 0.361, "unit": "h⁻¹"},
      {"measurement": "tonicity", "setting": "10% aqueous solution", "value": "ipertonic"},
      {"measurement": "tonicity", "setting": "15% aqueous solution", "value": "ipertonic"},
      {"measurement": "NaCl equivalent", "setting": "aqueous solution containing 5% cyclobenzaprine hydrochloride", "value": 0.88, "unit": "g-eq di NaCl"},
      {"measurement": "osmolarity", "setting": "aqueous solution containing 5% cyclobenzaprine hydrochloride, practically isotonic", "value": 400, "unit": "mOsmol/L"},
      {"measurement": "solubility of cyclobenzaprine base in the buffer solution", "setting": "[3]", "value": "not soluble"}
    ]}
  ]
}
